# Test system: Sphaerotheca fuliginea
# Assay: Field testing on melons, natural infection with Sphaerotheca fuliginea
# Assay type: in vivo
# Conditions: efficacy in % of untreated control, 3 applications
# Experimental: The visually determined percentages of infected leaf areas were converted into efficacies in % of the untreated control: The efficacy (E) is calculated as follows using Abbot's formula: W=(1−α/β)·100 • α corresponds to the fungicidal infection of the treated plants in % and • β corresponds to the fungicidal infection of the untreated (control) plants in % At an efficacy of 0, the infection level of the treated plants corresponds to that of the untreated control plants; at an efficacy of 100, the treated plants are not infected. The expected efficacies of active compound mixtures were determined using Colby's formula (S. R. Colby, “Calculating synergistic and antagonistic responses of herbicide combinations”, Weeds 15, pp. 20-22 (1967) and compared with the observed efficacies. E=x+y−x·y/100 • expected efficacy, expressed in % of the untreated control, when using the mixture of the active compounds A and B at the concentrations a and b • x efficacy, expressed in % of the untreated control, when using the active compound A at the concentration a • y efficacy, expressed in % of the untreated control, when using the active compound B at the concentration b The trial was carried out under standardized field conditions. Melons were grown in the field. After 36 days, an application with the recited products was carried out, which was repeated two times after 7 days and after 14 days. No further active components for pathogen control were applied. The infection with the pathogen Sphaerotheca fuliginea ensued naturally. Infestation in % of leaf area affected was scored 35 days after the first application. The visually determined values of % of leaf area infected was initially averaged and then converted into efficacies as % of the untreated control. An efficacy of 0 is the same infestation as the untreated control, an efficacy of 100% is 0% infestation. The expected efficacies of active compound combinations were determined as described above using Colby's formula and compared with the observed efficacies. The active compounds were used as commercially available compositions. […]
SMILES,"Observed effect 35 days after first treatment (dose 30 g ai/ha, scored 35 days after first application) [%]","Observed effect 35 days after first treatment (dose 50 g ai/ha, scored 35 days after first application) [%]","Observed effect 35 days after first treatment (dose 100 g ai/ha, leaf area infested scored 35 days after first application) [%]"
"CC1COC(Cn2cncn2)(c2ccc(Oc3ccc(Cl)cc3)cc2Cl)O1 (stereo not drawn) [Difenoconazole, 1-{2-[2-chloro-4-(4-chlorophenoxy)phenyl]-4-methyl-[1,3]dioxolan-2-ylmethyl}-1H-[1,2,4]triazole]",19,–,–
"COc1cc(C)c(C(=O)c2c(OC)ccc(Br)c2C)c(OC)c1OC [Metrafenone, 3′-bromo-2,3,4,6′-tetramethoxy-2′,6-dimethylbenzophenone]",–,46,70

# — US20110086758A1, “Fungicidal compositions comprising 3'-bromo-2,3,4,6'-tetramethoxy-2',6-dimethylbenzophenone” (BASF SE, priority 2008, published 2011)
